From ChEMBL document CHEMBL1201862, “PubChem BioAssay data set” (2004)
Several values for one entry are separate records, joined by “and”; a condition that tells them apart may be missing. Equal entries are not always repeated. Activity calls are given as the source filed them.

What was measured:
[1] = inhibitors of SNCA 5'UTR-driven translation, confirmation, luminescence, H4 neuroglioblastoma cells, dose confirmation (AID 2454); assay type: functional, cell-based;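 also: H4 neuroglioblastoma cells carrying an alpha-synuclein 5'UTR luciferase reporter; potency for inhibition of the luciferase signal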
[2] = inhibitors of SNCA 5'UTR-driven reporter translation, confirmation, H4 neuroglioma cells, luminescence (AID 1988); assay type: functional, cell-based
[3] = cytotoxicity in HEK-293T cells, dose response, cytotoxicity control for TCR NF-kB inhibitor project, luminescence, T-cell screen hits (AID 489026); assay type: functional, cell-based;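 also: cells exposed to compound about 14 hours before the viability readout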
[4] = luciferase reporter signal reduction – luminescence, H4-C neuroglioblastoma cells, dose response (AID 2458); assay type: functional, cell-based;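 also: H4 neuroglioblastoma cells stably carrying a luciferase reporter gene fusion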
[5] = target: T1, Heat shock factor protein 1 (Mus musculus, UniProt P38532); test: inhibition of MG132-induced HSE-luciferase signal, confirmation, cell-based, NIH3T3, luminescence, dose retest (AID 2382); assay type: functional;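 also: NIH3T3 fibroblasts with HSF1-driven luciferase reporter stressed by proteasome inhibitor MG132; luminescence from HSF1-driven luciferase expression after 8 hours of MG132 stress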
T1 sequence (P38532 whole entry): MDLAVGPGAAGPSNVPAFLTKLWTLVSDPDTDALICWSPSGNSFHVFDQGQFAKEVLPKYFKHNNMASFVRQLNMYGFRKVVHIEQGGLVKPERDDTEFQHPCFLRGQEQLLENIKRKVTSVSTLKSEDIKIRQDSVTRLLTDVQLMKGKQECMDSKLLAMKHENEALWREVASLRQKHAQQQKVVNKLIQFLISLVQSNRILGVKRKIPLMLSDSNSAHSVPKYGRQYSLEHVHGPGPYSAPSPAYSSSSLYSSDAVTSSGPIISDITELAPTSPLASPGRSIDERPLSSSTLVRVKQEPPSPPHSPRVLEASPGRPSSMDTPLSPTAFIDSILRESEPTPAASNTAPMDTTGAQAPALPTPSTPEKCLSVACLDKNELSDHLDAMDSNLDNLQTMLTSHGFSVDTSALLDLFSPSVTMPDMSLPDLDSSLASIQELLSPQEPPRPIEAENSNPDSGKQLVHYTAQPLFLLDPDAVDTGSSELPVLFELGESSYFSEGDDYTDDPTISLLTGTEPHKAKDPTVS

cells = assay type: functional, cell-based
[6] = inhibitors of firefly luciferase expression or activity, dose response, H4 neuroglioma cells, luminescence (AID 1990); assay type: functional, cell-based
[7] = Luminescence Cell-Based Dose Response HTS to Identify Inhibitors of 5'UTR Stem-Loop Driven Prion Protein mRNA Translation in H4 Neuroglioblastoma Cells. [Related pubchem assays: 1827 (Project Summary), 1813 (Primary HTS)]; assay type: functional
HEK293 = test: inhibitors of LMP1-driven NF-kB reporter, dose response, cell-based, HEK293, luciferase, cherry-pick (AID 588343); assay type: functional; details: Homo sapiens
HT-1080 = test: cytotoxicity in HT1080 fibrosarcoma cells, cell-based, fluorescence readout (AID 620); assay type: functional; details: Homo sapiens
[8] = target: Luciferin 4-monooxygenase (Photinus pyralis, UniProt P08659); test: Counter Screen for Luciferase-based Assay Positives. [Related pubchem assays: 620, 618, 411 ]
Estrogen receptor = target: T2, Estrogen receptor (Homo sapiens, UniProt P03372);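 also: potency for inhibiting coactivator peptide recruitment to the receptor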
T2 sequence (P03372 whole entry): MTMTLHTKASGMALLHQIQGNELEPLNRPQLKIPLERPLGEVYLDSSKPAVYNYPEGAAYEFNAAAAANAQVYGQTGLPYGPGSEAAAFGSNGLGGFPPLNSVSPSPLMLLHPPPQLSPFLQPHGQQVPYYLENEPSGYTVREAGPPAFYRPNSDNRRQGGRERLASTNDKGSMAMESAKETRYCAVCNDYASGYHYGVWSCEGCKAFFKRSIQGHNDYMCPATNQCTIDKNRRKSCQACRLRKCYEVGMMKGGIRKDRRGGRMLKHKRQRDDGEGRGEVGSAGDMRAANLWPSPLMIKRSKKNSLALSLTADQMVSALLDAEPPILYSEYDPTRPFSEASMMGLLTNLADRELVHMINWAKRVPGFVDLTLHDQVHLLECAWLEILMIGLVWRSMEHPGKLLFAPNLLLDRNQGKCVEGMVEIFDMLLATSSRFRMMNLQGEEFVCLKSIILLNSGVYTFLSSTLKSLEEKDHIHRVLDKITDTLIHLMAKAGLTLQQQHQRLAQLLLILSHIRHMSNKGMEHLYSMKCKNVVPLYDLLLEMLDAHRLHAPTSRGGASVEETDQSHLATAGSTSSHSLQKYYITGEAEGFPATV

Estrogen receptor beta [9] = target: T3, Estrogen receptor beta (Homo sapiens, UniProt Q92731); test: ERβ–SRC-3 coactivator interaction inhibitors, confirmation, orthogonal assay, biochemical, ELISA, streptavidin-HRP readout (AID 1060)
Estrogen receptor beta [10] = target: T3, Estrogen receptor beta
[11] = target: T4, Neuropeptide Y receptor type 2 (Homo sapiens, UniProt P49146); assay type: functional, cell-based;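 also: HEK293 cells expressing the receptor and a CNG channel; stimulus was NPY near EC95 followed by isoproterenol to raise cAMP; antagonist potency measured as restoring cAMP signal that NPY suppresses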
T4 sequence (P49146 whole entry): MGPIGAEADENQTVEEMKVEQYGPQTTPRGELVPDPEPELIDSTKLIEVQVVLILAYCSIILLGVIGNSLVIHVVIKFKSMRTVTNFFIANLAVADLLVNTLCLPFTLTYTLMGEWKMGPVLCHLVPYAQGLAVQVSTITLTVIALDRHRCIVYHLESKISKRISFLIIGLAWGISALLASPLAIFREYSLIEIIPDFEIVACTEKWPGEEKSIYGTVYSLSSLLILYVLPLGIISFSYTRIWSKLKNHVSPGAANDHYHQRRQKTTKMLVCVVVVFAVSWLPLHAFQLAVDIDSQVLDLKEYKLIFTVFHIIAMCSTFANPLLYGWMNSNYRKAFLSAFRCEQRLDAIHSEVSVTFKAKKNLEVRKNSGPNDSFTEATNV

[12] = target: T5, Neuropeptide Y receptor type 1 (Homo sapiens, UniProt P25929); assay type: functional;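 also: HEK293 cells with a CNG channel challenged with NPY then isoproterenol; potency as antagonist that reverses NPY suppression of cAMP signal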
T5 sequence (P25929 whole entry): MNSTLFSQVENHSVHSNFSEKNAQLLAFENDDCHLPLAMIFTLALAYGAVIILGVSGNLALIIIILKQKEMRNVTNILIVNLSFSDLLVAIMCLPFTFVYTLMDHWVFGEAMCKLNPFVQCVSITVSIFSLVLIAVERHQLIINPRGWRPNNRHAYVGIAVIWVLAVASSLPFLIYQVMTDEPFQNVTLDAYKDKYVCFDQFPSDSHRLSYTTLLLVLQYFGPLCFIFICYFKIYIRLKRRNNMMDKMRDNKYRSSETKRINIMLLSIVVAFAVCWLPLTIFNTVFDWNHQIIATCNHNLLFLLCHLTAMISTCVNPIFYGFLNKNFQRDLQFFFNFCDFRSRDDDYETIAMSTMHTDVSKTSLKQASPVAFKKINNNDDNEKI

[13] = target: T6, Rac GTPase-activating protein 1 (Homo sapiens, UniProt Q9H0H5); test: MgcRacGAP GTPase-activating activity inhibitors, confirmation, biochemical, ADP Hunter fluorescence, primary and confirmatory (AID 624330); assay type: functional
T6 sequence (Q9H0H5 whole entry): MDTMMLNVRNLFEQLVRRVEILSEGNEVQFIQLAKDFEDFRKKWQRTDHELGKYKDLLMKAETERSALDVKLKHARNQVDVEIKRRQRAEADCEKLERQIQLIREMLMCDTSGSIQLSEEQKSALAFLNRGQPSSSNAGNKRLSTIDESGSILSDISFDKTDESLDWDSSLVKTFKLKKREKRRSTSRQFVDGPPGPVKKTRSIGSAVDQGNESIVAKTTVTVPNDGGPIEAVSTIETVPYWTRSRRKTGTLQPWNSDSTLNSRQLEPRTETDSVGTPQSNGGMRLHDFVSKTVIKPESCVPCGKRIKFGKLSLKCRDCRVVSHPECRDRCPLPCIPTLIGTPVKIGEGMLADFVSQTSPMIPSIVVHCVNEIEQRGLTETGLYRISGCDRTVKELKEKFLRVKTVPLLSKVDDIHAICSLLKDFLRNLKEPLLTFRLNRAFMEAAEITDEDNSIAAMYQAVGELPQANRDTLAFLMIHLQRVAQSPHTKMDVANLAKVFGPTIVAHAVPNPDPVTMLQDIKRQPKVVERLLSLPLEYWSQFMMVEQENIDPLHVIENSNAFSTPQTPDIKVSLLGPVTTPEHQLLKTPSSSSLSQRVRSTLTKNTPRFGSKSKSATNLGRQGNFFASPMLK

T3 sequence (Q92731 whole entry): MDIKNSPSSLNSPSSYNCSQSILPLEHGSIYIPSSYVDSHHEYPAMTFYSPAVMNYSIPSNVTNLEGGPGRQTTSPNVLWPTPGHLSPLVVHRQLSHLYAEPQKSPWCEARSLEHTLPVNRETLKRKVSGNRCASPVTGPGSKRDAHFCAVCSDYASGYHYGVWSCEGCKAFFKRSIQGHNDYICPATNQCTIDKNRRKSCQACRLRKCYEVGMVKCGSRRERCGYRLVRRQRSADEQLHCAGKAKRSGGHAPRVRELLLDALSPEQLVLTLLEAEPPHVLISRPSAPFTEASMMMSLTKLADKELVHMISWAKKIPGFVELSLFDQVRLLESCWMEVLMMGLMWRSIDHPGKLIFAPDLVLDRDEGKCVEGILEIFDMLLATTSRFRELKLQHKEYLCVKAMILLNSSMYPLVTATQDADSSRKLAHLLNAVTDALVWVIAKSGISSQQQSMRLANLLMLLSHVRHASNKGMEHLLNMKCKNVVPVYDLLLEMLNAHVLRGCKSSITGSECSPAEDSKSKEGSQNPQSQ
Chain of Luciferin 4-monooxygenase (P08659 whole entry): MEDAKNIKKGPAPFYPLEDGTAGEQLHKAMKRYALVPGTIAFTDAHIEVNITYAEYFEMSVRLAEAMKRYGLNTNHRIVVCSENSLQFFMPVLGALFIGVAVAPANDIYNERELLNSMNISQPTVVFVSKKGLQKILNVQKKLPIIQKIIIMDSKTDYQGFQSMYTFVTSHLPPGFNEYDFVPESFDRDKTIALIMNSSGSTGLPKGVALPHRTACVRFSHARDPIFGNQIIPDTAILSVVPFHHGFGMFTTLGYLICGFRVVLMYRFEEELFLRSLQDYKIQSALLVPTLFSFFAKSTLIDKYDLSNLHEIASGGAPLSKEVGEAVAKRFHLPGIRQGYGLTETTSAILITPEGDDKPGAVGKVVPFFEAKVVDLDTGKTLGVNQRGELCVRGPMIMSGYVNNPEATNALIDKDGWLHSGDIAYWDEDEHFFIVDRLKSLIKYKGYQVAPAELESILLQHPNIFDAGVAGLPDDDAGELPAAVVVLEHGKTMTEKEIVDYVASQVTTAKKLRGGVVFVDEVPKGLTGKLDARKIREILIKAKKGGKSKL

With `O=[N+]([O-])c1nn(-c2ccc3c(c2)OCCO3)[n+]([O-])c1Nc1ccccc1` as the compound, how does the EC50 [1] read?
The EC50 was 0.09 µM (active).

What about the EC50 [2] of the same compound?
The EC50 was < 0.1 µM (active).

And the IC50 [3]?
The IC50 was > 80 µM (inactive).

What about the EC50 [4] of the same compound?
The EC50 was 0.098 µM (active).

What about the EC50 [5] of the same compound?
The EC50 was < 0.16 µM (active).

What about the EC50 (cells) of the same compound?
Its EC50 is 4.89 µM (active).

And the EC50 [6]?
The EC50 was < 0.1 µM (active).

What about the EC50 [7] of the same compound?
The EC50 was < 0.1 µM (active).

What does the source list for `O=C(NC1=NCCS1)c1cc2ccccc2o1`?
AC50 (HEK293): 3.65 µM (active); EC50 (HT-1080): > 50 µM (not active); EC50 [8]: 59.1 µM (active)

For `CN1C(=O)CSc2ccc(NC(=O)N3CCC(N4CCCCC4)CC3)cc21`, which IC50 (Estrogen receptor) is on record?
The IC50 was 11.8 µM (active).

What about the IC50 (Estrogen receptor beta [9]) of the same compound?
Its IC50 is < 77 µM (not active) and < 23 nM (not active).

What about the IC50 (Estrogen receptor beta [10]) of the same compound?
The IC50 was 6.24 µM (active).

With `Cc1ccc(NC(=O)C(=O)NCCOc2ccc(Cl)cc2)c(C)c1` as the compound, how does the IC50 [11] read?
Its IC50 is 7.41 µM (active).

And the IC50 [12]?
The IC50 was 7.39 µM (active).

With `CCCCOc1nc2ccccc2c(=O)n1-c1ccccc1` as the compound, how does the IC50 [11] read?
The IC50 was 8.15 µM (active).

And the IC50 [12]?
Its IC50 is 13.2 µM (not active).

Which results are given for `CNc1nnc(-c2ccc(N(C)C)cc2)s1`?
IC50 [13]: 99.3 µM (active); EC50 (HT-1080): > 50 µM (not active); EC50 [8]: 2.54 µM (active)
